One test addresses T1, IKZF1 (Homo sapiens, UniProt Q13422).
T1 construct: endogenously expressing IKZF1 with HiBiT fusion tag via CRISPR
Put plainly: IKZF1 Degradation Assay, HiBiT Method. The following applies: for DC50: NCIH929 cells expressing HiBiT-tagged IKZF1, 6 hours, top concentration 10 μM. Format: cell-based. As to the method:
Assay 2. IKZF1 Degradation Assay, HiBiT Method
Selected compounds of this disclosure were tested in an IKZF1 degradation assay using the HiBiT Method.
RPMI no-phenol red medium and fetal bovine serum (FBS) were purchased from Gibco (Grand Island, NY, USA). Nano-Glo® HiBiT Lytic Assay System was purchased from Promega (Madison, WI, USA). […] Cell culture flasks and 384-well microplates were acquired from VWR (Radnor, PA, USA).
IKZF1 degradation was determined based on quantification of luminescent signal using Nano-Glo® HiBiT Lytic Assay kit. […] NCIH929 cells expressing HiBiT-tagged IKZF1 were added into 384-well plates in RPMI medium containing 10% FBS and 0.05 mM 2-mercaptoethanol at a cell density of 15000 cells per well. The plates were kept at 37° C. with 5% CO2 for 6 hours. Cells treated in the absence of the test compound were the negative control and wells containing media only were the positive control. After 6-hour incubation, Nano-Glo® HiBiT Lytic Assay reagents were added to the designated wells. Luminescence was acquired on EnVision® Multilabel Reader (PerkinElmer, Santa Clara, CA, USA).

In the next test the target is T2, IRAK4 (Homo sapiens, UniProt Q9NWZ3).
T2 construct: 293Tcells expressing HiBiT-tagged IRAK4 were then added into 384-well plates
T2 sequence (Q9NWZ3 1-460): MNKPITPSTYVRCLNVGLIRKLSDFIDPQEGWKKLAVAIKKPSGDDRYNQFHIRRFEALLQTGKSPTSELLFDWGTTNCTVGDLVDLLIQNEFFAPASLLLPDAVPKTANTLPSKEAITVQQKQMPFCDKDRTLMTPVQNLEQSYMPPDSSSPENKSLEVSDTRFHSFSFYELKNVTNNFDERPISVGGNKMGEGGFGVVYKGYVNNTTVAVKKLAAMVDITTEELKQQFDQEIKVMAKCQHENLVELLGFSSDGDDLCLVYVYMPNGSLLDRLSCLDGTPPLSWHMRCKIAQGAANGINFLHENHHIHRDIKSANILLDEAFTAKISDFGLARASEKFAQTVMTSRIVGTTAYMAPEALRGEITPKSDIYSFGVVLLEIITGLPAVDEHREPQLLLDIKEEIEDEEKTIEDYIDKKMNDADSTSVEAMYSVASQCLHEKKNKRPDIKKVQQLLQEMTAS
Put plainly: IRAK4 Degradation Assay, HiBiT Method. Format: cell-based. As to conditions: 293T cells expressing HiBiT-tagged IRAK4, 6 hours. The essentials: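 Luminescent read-out with Nano-Glo HiBiT lytic reagent after 6 h compound exposure at 37 °C. Cells were HiBiT-IRAK4 knock-in 293T (C-terminal tag), 10,000 per well. Compounds ran as 11-point half-log dilutions from […] highest dose, duplicate wells; DMSO served as negative control.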

The structures appear in SMILES notation.

T1 sequence (Q96SW2 whole entry partner, the tested form may be a part): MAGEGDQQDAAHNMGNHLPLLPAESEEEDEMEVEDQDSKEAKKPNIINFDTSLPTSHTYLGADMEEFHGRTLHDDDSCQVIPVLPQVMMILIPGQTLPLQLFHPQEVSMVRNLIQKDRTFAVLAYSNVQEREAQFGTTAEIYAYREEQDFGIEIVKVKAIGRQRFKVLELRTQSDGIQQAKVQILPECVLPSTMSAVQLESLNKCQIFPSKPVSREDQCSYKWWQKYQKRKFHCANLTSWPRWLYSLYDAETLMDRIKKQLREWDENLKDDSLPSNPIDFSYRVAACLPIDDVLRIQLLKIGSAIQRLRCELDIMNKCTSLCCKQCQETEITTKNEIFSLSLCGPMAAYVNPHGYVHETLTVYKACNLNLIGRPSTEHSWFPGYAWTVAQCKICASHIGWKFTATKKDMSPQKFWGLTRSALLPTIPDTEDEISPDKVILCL
T1 sequence (Q16531 whole entry partner, the tested form may be a part): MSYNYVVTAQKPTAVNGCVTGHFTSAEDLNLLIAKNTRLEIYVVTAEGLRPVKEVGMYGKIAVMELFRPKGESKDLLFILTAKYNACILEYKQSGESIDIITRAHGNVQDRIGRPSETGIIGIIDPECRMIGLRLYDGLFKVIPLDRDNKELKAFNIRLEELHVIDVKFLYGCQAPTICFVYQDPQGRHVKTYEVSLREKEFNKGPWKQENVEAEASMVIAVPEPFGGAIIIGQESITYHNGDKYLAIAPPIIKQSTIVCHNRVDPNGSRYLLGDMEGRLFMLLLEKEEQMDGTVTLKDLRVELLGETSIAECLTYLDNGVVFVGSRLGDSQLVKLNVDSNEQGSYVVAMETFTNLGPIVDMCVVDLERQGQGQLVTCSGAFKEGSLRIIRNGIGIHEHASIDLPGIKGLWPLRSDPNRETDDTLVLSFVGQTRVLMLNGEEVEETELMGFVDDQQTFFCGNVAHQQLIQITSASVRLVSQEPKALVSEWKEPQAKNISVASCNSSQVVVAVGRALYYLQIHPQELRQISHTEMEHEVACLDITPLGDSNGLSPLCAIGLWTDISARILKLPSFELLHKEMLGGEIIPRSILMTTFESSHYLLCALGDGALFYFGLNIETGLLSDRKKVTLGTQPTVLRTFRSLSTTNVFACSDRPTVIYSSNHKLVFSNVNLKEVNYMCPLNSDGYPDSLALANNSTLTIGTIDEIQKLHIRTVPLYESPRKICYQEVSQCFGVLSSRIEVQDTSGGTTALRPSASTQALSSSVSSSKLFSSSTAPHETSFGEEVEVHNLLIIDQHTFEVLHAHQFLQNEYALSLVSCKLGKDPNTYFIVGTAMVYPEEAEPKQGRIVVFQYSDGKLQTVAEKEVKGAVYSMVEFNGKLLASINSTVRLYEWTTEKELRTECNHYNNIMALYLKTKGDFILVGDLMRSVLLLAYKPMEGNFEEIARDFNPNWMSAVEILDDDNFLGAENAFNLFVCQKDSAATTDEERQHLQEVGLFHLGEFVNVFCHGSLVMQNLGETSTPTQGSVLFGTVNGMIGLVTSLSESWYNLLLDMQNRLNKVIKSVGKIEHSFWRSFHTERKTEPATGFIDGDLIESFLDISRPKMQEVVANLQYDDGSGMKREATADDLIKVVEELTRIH
T1 sequence (Q13422 whole entry, the tested form may be a part): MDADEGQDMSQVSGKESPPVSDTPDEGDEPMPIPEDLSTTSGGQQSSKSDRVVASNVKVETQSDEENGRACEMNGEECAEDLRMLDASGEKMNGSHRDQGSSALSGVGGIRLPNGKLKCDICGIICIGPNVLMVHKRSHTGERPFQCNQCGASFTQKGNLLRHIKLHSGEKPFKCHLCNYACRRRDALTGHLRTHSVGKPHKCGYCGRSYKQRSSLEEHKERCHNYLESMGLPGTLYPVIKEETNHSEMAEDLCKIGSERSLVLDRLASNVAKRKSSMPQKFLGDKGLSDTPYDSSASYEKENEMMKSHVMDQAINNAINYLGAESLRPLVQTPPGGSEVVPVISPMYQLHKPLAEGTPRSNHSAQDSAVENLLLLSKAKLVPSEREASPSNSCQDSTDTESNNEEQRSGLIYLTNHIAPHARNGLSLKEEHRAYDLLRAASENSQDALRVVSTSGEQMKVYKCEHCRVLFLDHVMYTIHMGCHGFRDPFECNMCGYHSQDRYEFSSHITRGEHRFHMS

Take `CC(C)Oc1cc2nn([C@H]3CC[C@H](CN4CCN(c5ccc(C6CCC(=O)NC6=O)cn5)CC(O)C4)CC3)cc2cc1C(=O)Nc1cccn([C@H]2C[C@H]2F)c1=O` (stereo partly drawn) [Example 120, 2-((1r,4S)-4-((4-(5-(2,6-dioxopiperidin-3-yl)pyridin-2-yl)-6-hydroxy-1,4-diazepan-1-yl)methyl)cyclohexyl)-N-(1-((1S,2R)-2-fluorocyclopropyl)-2-oxo-1,2-dihydropyridin-3-yl)-6-isopropoxy-2H-indazole-5-carboxamide]: the 50% degradation concentration (DC50) at IKZF1 is greater than 10000 nM; at IRAK4 it was less than 10 nM. For `CC(C)Oc1cc2nc(C3CCN(C(=O)CC4(O)CCN(c5ccc(NC6CCC(=O)NC6=O)cc5)CC4)CC3)cn2cc1C(=O)Nc1cccc(C(F)F)n1` (centres unmarked) [Example 71, N-[6-(difluoromethyl)-2-pyridyl]-2-[1-[2-[1-[4-[(2,6-dioxo-3-piperidyl)amino]phenyl]-4-hydroxy-4-piperidyl]acetyl]-4-piperidyl]-7-isopropoxy-imidazo[1,2-a]pyridine-6-carboxamide], in that order: greater than 10000 nM and 10 to 100 nM.

Take `CC(C)Oc1cc2nc(C3CCN(C(=O)CC4CCN(c5ccc(C6CCC(=O)NC6=O)cn5)CC4)CC3)cn2cc1C(=O)Nc1cnn2cccnc12` (centres unmarked) [Example 159, 2-(1-(2-(1-(5-(2,6-dioxopiperidin-3-yl)pyridin-2-yl)piperidin-4-yl)acetyl)piperidin-4-yl)-7-isopropoxy-N-(pyrazolo[1,5-a]pyrimidin-3-yl)imidazo[1,2-a]pyridine-6-carboxamide]: the results for the DC50 at IKZF1 and at IRAK4 were greater than 10000 nM and less than 10 nM, respectively. For `Nc1cccc2c1C(=O)N(C1CCC(=O)NC1=O)C2=O` (centres unmarked) [pomalidomide, reference compound], on IKZF1 (NCIH929.11 cells, 6 hours), the “degradation of IKZF1” value amounted to 90%. Regarding `CC(C)Oc1cc2nc([C@H]3CC[C@H](CN4CCC(c5ccc(NC6CCC(=O)NC6=O)cn5)CC4)CC3)cn2cc1C(=O)Nc1cccc(C(F)F)n1` (some centres unmarked) [Example 35, N-[6-(difluoromethyl)-2-pyridyl]-2-[4-[[4-[5-[(2,6-dioxo-3-piperidyl)amino]-2-pyridyl]-1-piperidyl]methyl]cyclohexyl]-7-isopropoxy-imidazo[1,2-a]pyridine-6-carboxamide], the half-maximal degradation concentration (DC50) on IRAK4 was 10 to 100 nM. In turn, `CC(C)Oc1cc2nc([C@H]3CC[C@H](CN4CC5(CCCN5Cc5ccc(OC6CCC(=O)NC6=O)cc5)C4)CC3)cn2cc1C(=O)Nc1cccc(C(F)F)n1` (some centres unmarked) [Example 46, N-[6-(difluoromethyl)-2-pyridyl]-2-[4-[[5-[[4-[(2,6-dioxo-3-piperidyl)oxy]phenyl]methyl]-2,5-diazaspiro[3.4]octan-2-yl]methyl]cyclohexyl]-7-isopropoxy-imidazo[1,2-a]pyridine-6-carboxamide] had a DC50 at IRAK4 of 10 to 100 nM.

`CC(C)Oc1cc2nc(C3CCN(C(=O)CN4CCC(c5ccc(C6CCC(=O)NC6=O)cc5F)CC4)CC3)cn2cc1C(=O)Nc1cccc(C(F)F)n1` (centres unmarked) [Example 80, N-[6-(difluoromethyl)-2-pyridyl]-2-[1-[2-[4-[4-(2,6-dioxo-3-piperidyl)-2-fluoro-phenyl]-1-piperidyl]acetyl]-4-piperidyl]-7-isopropoxy-imidazo[1,2-a]pyridine-6-carboxamide] gave a 50% degradation concentration (DC50) on IRAK4 of 10 to 100 nM.

On IRAK4, `CC(C)Oc1cc2nc([C@H]3CC[C@H](CN4CCC(c5cc6c(cc5F)c(N5CCC(=O)NC5=O)nn6C)C(F)(F)C4)CC3)cn2cc1C(=O)Nc1cccc(C(F)F)n1` (some centres unmarked) [Example 33, N-[6-(difluoromethyl)-2-pyridyl]-2-[4-[[4-[3-(2,4-dioxohexahydropyrimidin-1-yl)-5-fluoro-1-methyl-indazol-6-yl]-3,3-difluoro-1-piperidyl]methyl]cyclohexyl]-7-isopropoxy-imidazo[1,2-a]pyridine-6-carboxamide] gave a DC50 of 100 to 500 nM.

The values are drawn from US20240343733A1, “COMPOUNDS FOR TARGETING DEGRADATION OF IRAK4 PROTEINS” (BIOGEN MA INC., priority 2021, published 2024).
